Entries after “also recorded” stand apart in the source; their conditions may differ.
What was measured:
c-myb:GFP positive cells = test: Confocal imaging of CHT, c-myb:GFP positive cells; type: in vivo, zebrafish; conditions: 10 μM, treated 48-72 hpf, imaged at 72 hpf
Procedure: (§1) Confocal imaging: Double transgenic c-myb:GFP; lyz:dsRed or c-myb:GFP; mpeg1:mCherry embryos from the same clutch were treated between 48-72 hpf (n=4 biological replicates per treatment group) with 10 μM ATRA diluted in E3. Live 72 hpf embryos were embedded in 0.8% low-melting point agarose containing 0.04 mg/mL Tricaine and imaged on a Nikon Eclipe Ti microscope with 20× Plan-Apo DIC N.A. 0.75. CHT cells were counted in Z-stack image projections processed on Imaris software (Bitplane).

[1] = tested on: mpeg1:mCherry positive cells; test: Confocal imaging of CHT, mpeg1:mCherry positive cells; type: in vivo, zebrafish; conditions: 10 μM, treated 48-72 hpf, imaged at 72 hpf
Procedure: as §1

lyz:dsRed positive cells = test: Confocal imaging of CHT, lyz:dsRed positive cells; type: in vivo, zebrafish; conditions: 10 μM, treated 48-72 hpf, imaged at 72 hpf
Procedure: as §1

c-myb = test: In situ hybridization of whole embryos, c-myb; type: in vivo, zebrafish; conditions: 10 μM, treated 48-72 hpf, fixed at 72 hpf
Procedure: In situ hybridization: In situ hybridization was done for c-myb as described in North (2007). Wildtype AB zebrafish embryos were treated with RAs in the E3 water at the indicated doses during 48-72 hpf, after which point they were fixed in 4% PFA. Qualitative scoring (number of embryos with altered number of HSCs scored) of c-myb positive cells was conducted by assessing the caudal hematopoietic tissue (CHT) region by the tail.
(§2) In situ hybridization: Wildtype AB embryos from the same clutch were treated between 48-72 hpf with 10 μM retinoic acid agonists diluted in E3, fixed at 72 hpf in 4% paraformaldehyde, and processed as previously described. CHT staining in the embryos was blindly scored as high, medium, or low, and summed across 3 independent experiments as done previously. Representative images were acquired on a Nikon ZMS 18 microscope.

runx1 = test: In situ hybridization of whole embryos, runx1; type: in vivo, zebrafish; conditions: 10 μM, treated 48-72 hpf, fixed at 72 hpf
Procedure: as §2

mpx = test: In situ hybridization of whole embryos, mpx; type: in vivo, zebrafish; conditions: 10 μM, treated 48-72 hpf, fixed at 72 hpf
Procedure: as §2

1-plastin = test: In situ hybridization of whole embryos, 1-plastin; type: in vivo, zebrafish; conditions: 10 μM, treated 48-72 hpf, fixed at 72 hpf
Procedure: as §2

MYB [2] = test: Western blot of ACC primagrafts, MYB; type: in vivo, human; conditions: long-term ACC x11 and short-term (3 days) ACC x5M1 primagrafts
Source text: (§3) Primagraft experiments: For in vivo drug testing, ACC tumor fragments from host animals were implanted subcutaneously into the flank of nude mice (CRL: ATH/NU). Once tumors reached 125-250 mm3, mice were randomized to receive vehicle or drug diluted in 10:90 DMSO:10% hydroxypropyl-beta-cyclodextrin orally until controls reached a tumor volume endpoint of 1-2 cm3 (4-9 mice per group: x5M1 and x6, 4 treated vs. 9 vehicle controls; x9, 4 treated vs. 5 vehicle controls; x11, 5 treated vs. 8 vehicle controls). Mice were treated with ATRA (ACC x6 and x11: 4 mg/mL, 0.2 mL flat dose; ACC×9: 3 mg/mL, 0.2 mL flat dose) or isotretinoin (30 mg/mL, 0.2 mL flat dose). Tumor growth was monitored and mice weighed twice weekly and studies ended when final group reached tumor volume endpoint. No statistical methods were employed to determine the sample size, and no blinding of investigators was performed. […]
Western blots: ACC x11 (from long-term tumor growth inhibition studies) and ACC x5M1 (from short-term kinetics studies) primagrafts were mechanically homogenized in RIPA lysis buffer (Thermo Scientific) supplemented by addition of complete protease inhibitor cocktail (Roche). Protein concentrations were determined by DC protein assay (BioRad).

cleaved caspase-3 = test: Immunohistochemistry of ACC primagrafts, cleaved caspase-3; type: in vivo, nude mice; conditions: ACC x6, x9, x11 primagrafts at conclusion of long-term studies
Source text: as §3
Immunohistochemistry: Sectioning and staining was carried out by the Dana-Farber/Harvard Cancer Center Specialized Histopathology Core using standard procedures on ACC x6, x9, and x11 samples (from long-term tumor growth inhibition studies). […] Primary antibody was detected using Bond Polymer Refine Detection kit. […] Images (>200 nuclei each) from three different individual primagrafts were blindly quantitated.

RARA and RARG = test: RNA-seq of short-term ACC x9 primagrafts, RARA and RARG; type: in vivo, human; conditions: 3 days, n=3, p<0.05
Source text: as §3, with “performed. After long-term tumor growth inhibition studies were completed, the ATRA treated mice stopped receiving treatment and were maintained longer as indicated to monitor tumor maintenance after treatment cessation. For long-term tumor growth inhibition studies, ACC x6, x9, and x11 models were used and primagrafts collected at the completion of the study. Short-term kinetics studies were also undertaken with ACC x9 and x5M1 primagrafts involving 3 day ATRA treatments.” for “performed.”

MYB [3] = test: RNA-seq of short-term ACC x9 primagrafts, MYB; type: in vivo, human; conditions: 3 days, n=3, p<0.05
Source text: as §3, with “performed. After long-term tumor growth inhibition studies were completed, the ATRA treated mice stopped receiving treatment and were maintained longer as indicated to monitor tumor maintenance after treatment cessation. For long-term tumor growth inhibition studies, ACC x6, x9, and x11 models were used and primagrafts collected at the completion of the study. Short-term kinetics studies were also undertaken with ACC x9 and x5M1 primagrafts involving 3 day ATRA treatments.” for “performed.”

[4] = patients, 45 mg/m2 oral dose of ATRA, first day of treatment; cited from earlier work

For `CC(C=CC1=C(C)CCCC1(C)C)=CC=C/C(C)=C/C(=O)O` [ATRA, (E)-3,7-dimethyl-9-(2,6,6-trimethyl-1-cyclo-hexen-1-yl)-2,4,6,8-nonatetraenoic acid], the “number of c-myb:GFP+ cells in the CHT” value (c-myb:GFP positive cells) was “significant decrease; also recorded: decreased”, the “mpeg1:mCherry+ cells in the CHT” value [1] was “no significant difference; also recorded: no significant effect” and the “lyz:dsRed+ cells in the CHT” value (lyz:dsRed positive cells) was “no significant difference; also recorded: no significant effect”. The “c-myb expression (staining) in the CHT” value (c-myb) was “significant decrease; also recorded: decreased staining”, the “runx1 expression (staining) in the CHT” value (runx1) was “significant decrease; also recorded: decreased staining” and the “mpx expression (staining) in the CHT” value (mpx) was “no significant difference; also recorded: did not decrease staining”. The “1-plastin expression (staining) in the CHT” value (1-plastin) was “no significant difference; also recorded: did not decrease staining”, the “MYB protein expression (wildtype and fusion)” value (MYB [2]) was “decreases” and the “cell death (cleaved caspase-3 positive nuclei)” value (cleaved caspase-3) was “induced more cell death”. For the same molecule, the “increase of RARA and RARG gene levels” value (RARA and RARG) was ~40%, the “decrease of MYB levels” value (MYB [3]) was ~20% and the median plasma concentration [4] was “approximately 1 μM”.
